From ChEMBL document CHEMBL4842340, “Development of Cagrilintide, a Long-Acting Amylin Analogue” (J Med Chem, 2021)
Values after ≈ are worked out from the molar mass of the structure shown. *1 amine or outer side, *2 acyl side, *3 side chain or, on linkers, in order; H or OH if unused. Where a SMILES comes first, the peptide text is derived from it. Bridges are numbered along the chain shown (N, C = ends). [ ]: non-standard residue; d: D form. The star is where a group is joined. X1 = O=C(NC(=O)[C@H](Cc1cnc[nH]1)N[*:1])[C@@H](Cc1cnc[nH]1)C(=O)[*:2]; C20 diacid = O=C(O)CCCCCCCCCCCCCCCCCCC(=O)*; γGlu = O=C(O)[C@H](CCC(=O)[*:2])N[*:1]; hArg = N=C(N)NCCCC[C@H](N)C(=O)O; Agb = N=C(N)NCC[C@H](N)C(=O)O

What was measured:
[1] = Agonist activity at human AMY3R (CT+RAMP3) expressed in Hollex1 cells incubated for 3 hrs by luminescence assay; type: cell-based; conditions: Hollex1, 3 h
[2] = Agonist activity at rat AMY3R (CT+RAMP3) expressed in tk-ts13 cells assessed as increase in intracellular cAMP level incuabted for 25 mins by CRE luciferase reporter gene assay; type: cell-based; conditions: tk-ts13, 25 min
[3] = Solubility of the compound in bis-tris propane at pH 8 by UPLC analysis; type: physicochemical; conditions: bis-tris propane buffer
Rattus norvegicus [4] = test: Reduction in food intake in Sprague-Dawley rat at 30 nmol/kg, sc administered as single dose measured after 24 to 48 hrs relative to control; type: functional; set-up: scale not given: the % may be the effect or the level left; conditions: time 24-48 hrs
[5] = Solubility of the compound in lactate at pH 4 by UPLC analysis; type: physicochemical; conditions: lactate buffer
[6] = Agonist activity at rat calcitonin receptor expressed in BHK-13 cells assessed as increase in intracellular cAMP concentration incubated for 25 mins by CRE luciferase reporter gene assay; type: cell-based; conditions: BHK-13, 25 min
Insulin (Homo sapiens) [7] = target: Insulin (Homo sapiens) (UniProt P01308); test: Effect on insulin (unknown origin) amyloid fibril formation assessed as peptide recovery in glycyl-glycine buffer at pH 4 measured after 45 hrs by thioflavin-T fluorescence assay relative to control; set-up: concentration or dose not given beside the values
Homo sapiens = organism: Homo sapiens; test: Ratio of EC50 for human calcitonin receptor expressed in BHK570 cells to EC50 for human AMY3R (CT+RAMP3) expressed in Hollex1 cells; type: cell-based
[8] = Displacement of [125I]-amylin from human AMY3R (CTR+RAMP3) expressed in BHK-13 cells measured after 120 mins by scintillation proximity assay; type: cell-based
Rattus norvegicus [9] = organism: Rattus norvegicus; test: Ratio of EC50 for rat calcitonin receptor expressed in BHK-13 cells to EC50 for rat AMY3R (CT+RAMP3) expressed in tk-ts13 cells; type: cell-based
Insulin (Homo sapiens) [10] = target: Insulin (Homo sapiens) (UniProt P01308); test: Effect on insulin (unknown origin) amyloid fibril formation assessed as lag time in glycyl-glycine buffer at pH 4 measured after 45 hrs by thioflavin-T fluorescence assay
[11] = Solubility of the compound in lactate at pH 3 by UPLC analysis; type: physicochemical; conditions: lactate buffer
[12] = Solubility of the compound in bis-tris propane at pH 6 by UPLC analysis; type: physicochemical; conditions: bis-tris propane buffer
[13] = Solubility of the compound in lactate at pH 5 by UPLC analysis; type: physicochemical; conditions: lactate buffer
Rattus norvegicus [14] = test: Reduction in food intake in Sprague-Dawley rat at 30 nmol/kg, sc administered as single dose measured upto 24 hrs relative to control; type: functional; set-up: scale not given: the % may be the effect or the level left; conditions: time hrs <=24
[15] = Agonist activity at human calcitonin receptor expressed in BHK570 cells assessed as increase in intracellular cAMP concentration incubated for 3 hrs in absence of albumin by CRE luciferase reporter gene assay; type: cell-based; conditions: BHK570, 3 h
[16] = Solubility of the compound in bis-tris propane at pH 6.5 by UPLC analysis; type: physicochemical; conditions: bis-tris propane buffer
[17] = Solubility of the compound in bis-tris propane at pH 7 by UPLC analysis; type: physicochemical; conditions: bis-tris propane buffer
[18] = Solubility of the compound in bis-tris propane at pH 7.5 by UPLC analysis; type: physicochemical; conditions: bis-tris propane buffer

Sequence of Insulin (Homo sapiens) (P01308 whole entry): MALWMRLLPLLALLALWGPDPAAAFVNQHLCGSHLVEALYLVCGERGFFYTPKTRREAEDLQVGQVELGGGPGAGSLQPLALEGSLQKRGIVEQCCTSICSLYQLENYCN

| Structure (SMILES) | EC50 [1] [nM] | EC50 [2] [nM] | solubility [3] [µM] | Activity (Rattus norvegicus [4]) [%] | solubility [5] [µM] | EC50 [6] [nM] | Activity (Insulin (Homo sapiens) [7]) [%] | Ratio EC50 (Homo sapiens) | IC50 [8] [nM] | Ratio EC50 (Rattus norvegicus [9]) | TIME (Insulin (Homo sapiens) [10]) [h] | solubility [11] [µM] | solubility [12] [µM] | solubility [13] [µM] | Activity (Rattus norvegicus [14]) [%] | EC50 [15] [nM] | solubility [16] [µM] | solubility [17] [µM] | solubility [18] [µM] |
| --- | --- | --- | --- | --- | --- | --- | --- | --- | --- | --- | --- | --- | --- | --- | --- | --- | --- | --- | --- |
| CC[C@H](C)[C@H](NC(=O)[C@@H]1CCCN1C(=O)CNC(=O)[C@H](Cc1ccccc1)NC(=O)[C@H](CC(N)=O)NC(=O)[C@H](CC(N)=O)NC(=O)[C@H](CO)NC(=O)[C@H](CO)NC(=O)[C@H](Cc1cnc[nH]1)NC(=O)[C@H](Cc1cnc[nH]1)NC(=O)[C@H](CC(C)C)NC(=O)[C@H](Cc1ccccc1)NC(=O)[C@H](CCC(=O)O)NC(=O)[C@H](C)NC(=O)[C@H](CC(C)C)NC(=O)[C@H](CCCNC(=N)N)NC(=O)[C@H](CCC(N)=O)NC(=O)[C@@H](NC(=O)[C@H](C)NC(=O)[C@@H]1CSSC[C@H](NC(=O)[C@H](Cc2cnc[nH]2)NC(=O)[C@H](Cc2cnc[nH]2)NC(=O)[C@H](Cc2cnc[nH]2)NC(=O)CC[C@H](NC(=O)CCCCCCCCCCCCCCCCCCC(=O)O)C(=O)O)C(=O)N[C@@H](CC(N)=O)C(=O)N[C@@H]([C@@H](C)O)C(=O)N[C@@H](C)C(=O)N[C@@H]([C@@H](C)O)C(=O)N1)[C@@H](C)O)C(=O)N[C@@H](CC(C)C)C(=O)N1CCC[C@H]1C(=O)N1CCC[C@H]1C(=O)N[C@H](C(=O)N[C@@H](CC(N)=O)C(=O)N[C@H](C(=O)NCC(=O)N[C@@H](CO)C(=O)N[C@@H](CC(N)=O)C(=O)N[C@H](C(=O)N[C@@H](Cc1ccc(O)cc1)C(N)=O)[C@@H](C)O)C(C)C)[C@@H](C)O ({C20 diacid-γGlu}-HHHCNTATCATQRLAEFLHHSSNNFGPILPPTNVGSNTY-NH2; disulfide 4-9) | 0.074 | 0.083 | 200 (≈ 948 µg/mL) | 92 | 200 (≈ 948 µg/mL) | 0.857 | 3 | 3 | 0.723 | 10 | 7 | 200 (≈ 948 µg/mL) | 200 (≈ 948 µg/mL) | 200 (≈ 948 µg/mL) | 87 | 0.2 | – | – | – |
| CC[C@H](C)[C@H](NC(=O)[C@@H]1CCCN1C(=O)CNC(=O)[C@H](Cc1ccccc1)NC(=O)[C@H](CC(N)=O)NC(=O)[C@H](CC(N)=O)NC(=O)[C@H](CO)NC(=O)[C@H](CO)NC(=O)[C@H](Cc1cnc[nH]1)NC(=O)[C@H](Cc1cnc[nH]1)NC(=O)[C@H](CC(C)C)NC(=O)[C@H](Cc1ccccc1)NC(=O)[C@H](CCCNC(=N)N)NC(=O)[C@H](C)NC(=O)[C@H](CC(C)C)NC(=O)[C@H](CCCNC(=N)N)NC(=O)[C@H](CCC(N)=O)NC(=O)[C@@H](NC(=O)[C@H](C)NC(=O)[C@@H]1CSSC[C@H](NC(=O)[C@H](Cc2cnc[nH]2)NC(=O)[C@H](Cc2cnc[nH]2)NC(=O)[C@H](Cc2cnc[nH]2)NC(=O)CC[C@H](NC(=O)CCCCCCCCCCCCCCCCCCC(=O)O)C(=O)O)C(=O)N[C@@H](CC(N)=O)C(=O)N[C@@H]([C@@H](C)O)C(=O)N[C@@H](C)C(=O)N[C@@H]([C@@H](C)O)C(=O)N1)[C@@H](C)O)C(=O)N[C@@H](CC(C)C)C(=O)N1CCC[C@H]1C(=O)N1CCC[C@H]1C(=O)N[C@H](C(=O)N[C@@H](CC(N)=O)C(=O)N[C@H](C(=O)NCC(=O)N[C@@H](CO)C(=O)N[C@@H](CC(N)=O)C(=O)N[C@H](C(=O)N[C@@H](Cc1ccc(O)cc1)C(N)=O)[C@@H](C)O)C(C)C)[C@@H](C)O ({C20 diacid-γGlu}-HHHCNTATCATQRLARFLHHSSNNFGPILPPTNVGSNTY-NH2; disulfide 4-9) | 0.069 | 0.143 | – | 25 | 200 (≈ 953 µg/mL) | 7.09 | 10 | 6 | – | 50 | 10 | 200 (≈ 953 µg/mL) | 200 (≈ 953 µg/mL) | 200 (≈ 953 µg/mL) | 65 | 0.398 | 117 (≈ 558 µg/mL) | 1 (≈ 4.77 µg/mL) | – |
| CC[C@H](C)[C@H](NC(=O)[C@@H]1CCCN1C(=O)CNC(=O)[C@H](Cc1ccccc1)NC(=O)[C@H](CC(N)=O)NC(=O)[C@H](CC(N)=O)NC(=O)[C@H](CO)NC(=O)[C@H](CO)NC(=O)[C@H](Cc1cnc[nH]1)NC(=O)[C@H](Cc1cnc[nH]1)NC(=O)[C@H](CC(C)C)NC(=O)[C@H](Cc1ccccc1)NC(=O)[C@H](CC(N)=O)NC(=O)[C@H](C)NC(=O)[C@H](CC(C)C)NC(=O)[C@H](CCNC(=N)N)NC(=O)[C@H](CCC(N)=O)NC(=O)[C@@H](NC(=O)[C@H](C)NC(=O)[C@@H]1CSSC[C@H](NC(=O)[C@H](Cc2cnc[nH]2)NC(=O)[C@H](Cc2cnc[nH]2)C(=O)NC(=O)[C@H](Cc2cnc[nH]2)NC(=O)CC[C@H](NC(=O)CCCCCCCCCCCCCCCCCCC(=O)O)C(=O)O)C(=O)N[C@@H](CC(N)=O)C(=O)N[C@@H]([C@@H](C)O)C(=O)N[C@@H](C)C(=O)N[C@@H]([C@@H](C)O)C(=O)N1)[C@@H](C)O)C(=O)N[C@@H](CC(C)C)C(=O)N1CCC[C@H]1C(=O)N1CCC[C@H]1C(=O)N[C@H](C(=O)N[C@@H](CC(N)=O)C(=O)N[C@H](C(=O)NCC(=O)N[C@@H](CO)C(=O)N[C@@H](CC(N)=O)C(=O)N[C@H](C(=O)N[C@@H](Cc1ccc(O)cc1)C(N)=O)[C@@H](C)O)C(C)C)[C@@H](C)O ({C20 diacid-γGlu}-[X1]HCNTATCATQ[Agb]LANFLHHSSNNFGPILPPTNVGSNTY-NH2; disulfide 3-8) | 0.095 | 1.03 | 19 (≈ 90 µg/mL) | 0 | 200 (≈ 948 µg/mL) | 18.4 | 7 | 10 | 1.29 | 18 | 7 | 200 (≈ 948 µg/mL) | 200 (≈ 948 µg/mL) | 200 (≈ 948 µg/mL) | 28 | 0.961 | 115 (≈ 545 µg/mL) | 7 (≈ 33.2 µg/mL) | 5 (≈ 23.7 µg/mL) |
| CC[C@H](C)[C@H](NC(=O)[C@@H]1CCCN1C(=O)CNC(=O)[C@H](Cc1ccccc1)NC(=O)[C@H](CC(N)=O)NC(=O)[C@H](CC(N)=O)NC(=O)[C@H](CO)NC(=O)[C@H](CO)NC(=O)[C@H](Cc1cnc[nH]1)NC(=O)[C@H](Cc1cnc[nH]1)NC(=O)[C@H](CC(C)C)NC(=O)[C@H](Cc1ccccc1)NC(=O)[C@H](CC(N)=O)NC(=O)[C@H](C)NC(=O)[C@H](CC(C)C)NC(=O)[C@H](CCCCNC(=N)N)NC(=O)[C@H](CCC(N)=O)NC(=O)[C@@H](NC(=O)[C@H](C)NC(=O)[C@@H]1CSSC[C@H](NC(=O)[C@H](Cc2cnc[nH]2)NC(=O)[C@H](Cc2cnc[nH]2)C(=O)NC(=O)[C@H](Cc2cnc[nH]2)NC(=O)CC[C@H](NC(=O)CCCCCCCCCCCCCCCCCCC(=O)O)C(=O)O)C(=O)N[C@@H](CC(N)=O)C(=O)N[C@@H]([C@@H](C)O)C(=O)N[C@@H](C)C(=O)N[C@@H]([C@@H](C)O)C(=O)N1)[C@@H](C)O)C(=O)N[C@@H](CC(C)C)C(=O)N1CCC[C@H]1C(=O)N1CCC[C@H]1C(=O)N[C@H](C(=O)N[C@@H](CC(N)=O)C(=O)N[C@H](C(=O)NCC(=O)N[C@@H](CO)C(=O)N[C@@H](CC(N)=O)C(=O)N[C@H](C(=O)N[C@@H](Cc1ccc(O)cc1)C(N)=O)[C@@H](C)O)C(C)C)[C@@H](C)O ({C20 diacid-γGlu}-[X1]HCNTATCATQ[hArg]LANFLHHSSNNFGPILPPTNVGSNTY-NH2; disulfide 3-8) | 0.102 | 0.321 | 25 (≈ 119 µg/mL) | 2 | 200 (≈ 953 µg/mL) | 4.48 | 21 | 4 | 1.11 | 7 | 4 | 200 (≈ 953 µg/mL) | 200 (≈ 953 µg/mL) | 200 (≈ 953 µg/mL) | 24 | 0.391 | 50 (≈ 238 µg/mL) | 2 (≈ 9.53 µg/mL) | 7 (≈ 33.4 µg/mL) |
